Legend:
rat OPC = test: Monoculture rat OPC differentiation assay; details: alone or in combination with miconazole
mSGPL1 [1] = target: T1, mSGPL1 (Mus musculus, UniProt Q8R0X7); test: AEA-DA probe interactions with mSGPL1 in vitro; format: binding; details: Fig. S3c
T1 sequence (Q8R0X7 1-568): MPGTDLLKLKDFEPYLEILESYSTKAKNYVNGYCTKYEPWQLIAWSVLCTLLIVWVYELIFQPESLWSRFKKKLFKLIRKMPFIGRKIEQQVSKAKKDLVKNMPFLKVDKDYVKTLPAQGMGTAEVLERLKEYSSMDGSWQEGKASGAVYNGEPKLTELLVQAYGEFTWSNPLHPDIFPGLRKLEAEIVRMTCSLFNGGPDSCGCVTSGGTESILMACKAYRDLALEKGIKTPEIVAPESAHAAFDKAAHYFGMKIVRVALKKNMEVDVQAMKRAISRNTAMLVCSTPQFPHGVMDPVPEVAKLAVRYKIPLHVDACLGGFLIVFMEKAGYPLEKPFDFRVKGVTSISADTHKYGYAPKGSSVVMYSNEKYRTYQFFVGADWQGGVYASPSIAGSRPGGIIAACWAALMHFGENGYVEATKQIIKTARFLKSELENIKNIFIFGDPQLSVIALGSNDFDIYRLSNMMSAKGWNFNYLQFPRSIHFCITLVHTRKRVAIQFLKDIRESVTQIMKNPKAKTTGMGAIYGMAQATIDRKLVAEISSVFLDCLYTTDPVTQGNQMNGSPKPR

ABHD5 = target: T2, ABHD5 (Homo sapiens, UniProt Q8WTS1); test: LiPIP; format: binding; details: ligand at both 5 and 25 μM; probe 10 μM; HEK293T cells
T2 sequence (Q8WTS1 1-349): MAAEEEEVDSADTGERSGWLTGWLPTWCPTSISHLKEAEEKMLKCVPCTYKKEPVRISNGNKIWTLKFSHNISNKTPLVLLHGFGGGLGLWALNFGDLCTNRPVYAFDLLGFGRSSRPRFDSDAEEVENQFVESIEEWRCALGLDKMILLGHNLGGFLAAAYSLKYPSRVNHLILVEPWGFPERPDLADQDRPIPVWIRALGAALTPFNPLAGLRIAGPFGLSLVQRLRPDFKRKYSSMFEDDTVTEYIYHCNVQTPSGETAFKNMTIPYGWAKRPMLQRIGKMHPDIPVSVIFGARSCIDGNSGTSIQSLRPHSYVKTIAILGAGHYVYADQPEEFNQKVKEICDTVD

ABHD10 = target: T3, ABHD10 (Homo sapiens, UniProt Q9NUJ1); test: LiPIP probe competition in HEK293T cells, off-target ABHD10; format: binding; details: ligand 25 μM
T3 sequence (Q9NUJ1 53-306): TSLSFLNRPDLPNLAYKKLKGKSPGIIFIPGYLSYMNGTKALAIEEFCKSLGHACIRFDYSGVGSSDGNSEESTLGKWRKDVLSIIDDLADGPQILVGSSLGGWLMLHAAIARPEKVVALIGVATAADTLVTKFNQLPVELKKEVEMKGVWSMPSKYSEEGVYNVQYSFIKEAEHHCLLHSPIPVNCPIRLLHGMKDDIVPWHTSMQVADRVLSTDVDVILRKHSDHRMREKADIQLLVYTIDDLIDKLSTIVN

PNPLA2 = target: T4, PNPLA2 (Homo sapiens, UniProt Q96AD5); test: LiPIP probe competition in HEK293T cells, PNPLA2; format: binding; details: unaltered lipid probe enrichment ratio
T4 sequence (Q96AD5 1-504): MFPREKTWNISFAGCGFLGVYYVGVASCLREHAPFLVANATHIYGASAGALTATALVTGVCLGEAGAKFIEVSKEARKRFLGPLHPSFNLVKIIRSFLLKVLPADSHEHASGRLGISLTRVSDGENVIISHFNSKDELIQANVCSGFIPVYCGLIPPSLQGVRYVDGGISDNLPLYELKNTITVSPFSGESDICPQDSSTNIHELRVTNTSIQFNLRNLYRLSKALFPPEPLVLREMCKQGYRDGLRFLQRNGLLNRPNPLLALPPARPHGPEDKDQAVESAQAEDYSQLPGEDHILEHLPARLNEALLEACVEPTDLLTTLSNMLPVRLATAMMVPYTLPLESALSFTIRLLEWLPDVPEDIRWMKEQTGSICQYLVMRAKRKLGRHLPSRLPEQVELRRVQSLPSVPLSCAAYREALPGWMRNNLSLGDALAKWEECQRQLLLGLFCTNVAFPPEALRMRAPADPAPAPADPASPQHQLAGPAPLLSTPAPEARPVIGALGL

EPHX2 = target: T5, EPHX2 (Homo sapiens, UniProt P34913); test: LiPIP probe competition in HEK293T cells, off-target EPHX2; format: binding; details: ligand 25 μM
T5 sequence (P34913 1-555): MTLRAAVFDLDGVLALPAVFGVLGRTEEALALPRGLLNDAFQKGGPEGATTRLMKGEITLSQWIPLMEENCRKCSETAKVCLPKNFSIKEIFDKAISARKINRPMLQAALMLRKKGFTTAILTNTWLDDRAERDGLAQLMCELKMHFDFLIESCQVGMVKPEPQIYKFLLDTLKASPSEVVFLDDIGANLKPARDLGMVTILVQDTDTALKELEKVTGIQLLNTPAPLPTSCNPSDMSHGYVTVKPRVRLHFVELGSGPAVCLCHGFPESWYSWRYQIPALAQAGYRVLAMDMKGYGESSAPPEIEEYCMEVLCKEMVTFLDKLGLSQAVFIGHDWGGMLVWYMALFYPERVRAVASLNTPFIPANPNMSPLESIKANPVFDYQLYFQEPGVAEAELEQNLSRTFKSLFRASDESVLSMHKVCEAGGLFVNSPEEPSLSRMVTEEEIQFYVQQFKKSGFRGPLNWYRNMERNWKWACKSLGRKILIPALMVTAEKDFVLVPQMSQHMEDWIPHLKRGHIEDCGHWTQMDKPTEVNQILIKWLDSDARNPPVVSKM

hSGPL1 = target: T6, hSGPL1 (Homo sapiens, UniProt O95470); format: biochemical
T6 sequence (O95470 1-568): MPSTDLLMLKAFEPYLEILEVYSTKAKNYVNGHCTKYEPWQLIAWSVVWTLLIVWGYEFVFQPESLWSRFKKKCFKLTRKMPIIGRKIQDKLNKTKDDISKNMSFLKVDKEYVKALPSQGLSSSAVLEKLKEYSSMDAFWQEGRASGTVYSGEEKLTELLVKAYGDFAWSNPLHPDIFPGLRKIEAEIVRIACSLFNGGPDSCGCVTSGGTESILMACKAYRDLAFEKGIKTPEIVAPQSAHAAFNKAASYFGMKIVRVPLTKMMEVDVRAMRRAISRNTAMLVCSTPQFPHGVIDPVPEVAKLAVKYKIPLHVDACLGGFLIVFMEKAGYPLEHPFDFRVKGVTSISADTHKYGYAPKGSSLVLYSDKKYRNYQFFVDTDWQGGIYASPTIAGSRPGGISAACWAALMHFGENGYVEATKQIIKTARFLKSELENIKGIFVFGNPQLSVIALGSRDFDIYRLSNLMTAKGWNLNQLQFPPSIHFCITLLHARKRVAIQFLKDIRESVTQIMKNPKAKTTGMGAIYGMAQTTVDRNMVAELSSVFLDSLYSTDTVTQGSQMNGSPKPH

Neuro2a cells = test: Endogenous S1P content of Neuro2a cells by targeted LC-MS/MS; format: cell-based, mouse; details: 6 h treatment
[2] = test system: oligodendrocyte precursor cell (OPC); details: cited from earlier work
CLPP = CLPP (Mus musculus, UniProt O88696); test: LiPIP in Neuro2a cells, CLPP; format: binding; details: drug 30 μM, lipid probe 10 μM
CLPP, sequence (O88696 53-272): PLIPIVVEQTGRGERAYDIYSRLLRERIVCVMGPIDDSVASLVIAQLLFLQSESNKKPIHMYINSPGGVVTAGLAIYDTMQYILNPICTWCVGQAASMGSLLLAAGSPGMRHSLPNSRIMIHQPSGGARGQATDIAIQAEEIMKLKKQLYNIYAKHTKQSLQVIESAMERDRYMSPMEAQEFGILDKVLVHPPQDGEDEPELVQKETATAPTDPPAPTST

SGPL1 = target: T7, SGPL1 (Mus musculus, UniProt Q8R0X7); test: LiPIP in Neuro2a cells, SGPL1; format: binding; details: drug 30 μM, lipid probe 10 μM
T7 sequence (Q8R0X7 1-568): T1 sequence (Q8R0X7 1-568)

EPHX1 = target: T8, EPHX1 (Mus musculus, UniProt Q9D379); test: LiPIP in Neuro2a cells, EPHX1; format: binding; details: drug 30 μM, lipid probe 10 μM
T8 sequence (Q9D379 1-455): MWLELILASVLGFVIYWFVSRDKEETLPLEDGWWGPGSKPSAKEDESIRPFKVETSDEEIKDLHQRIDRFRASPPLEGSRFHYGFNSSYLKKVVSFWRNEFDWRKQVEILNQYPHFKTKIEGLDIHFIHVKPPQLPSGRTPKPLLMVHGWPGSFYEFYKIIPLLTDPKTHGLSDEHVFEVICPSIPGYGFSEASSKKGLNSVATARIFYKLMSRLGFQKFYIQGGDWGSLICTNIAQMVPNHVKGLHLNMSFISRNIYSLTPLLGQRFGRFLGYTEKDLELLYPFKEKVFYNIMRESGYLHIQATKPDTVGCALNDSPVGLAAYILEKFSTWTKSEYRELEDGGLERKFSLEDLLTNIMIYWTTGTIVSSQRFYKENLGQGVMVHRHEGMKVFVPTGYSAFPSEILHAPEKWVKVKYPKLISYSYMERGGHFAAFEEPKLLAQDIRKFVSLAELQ

TMEM97 = target: T9, TMEM97 (Mus musculus, UniProt Q8VD00); test: LiPIP in Neuro2a cells, TMEM97; format: binding; details: drug 30 μM, lipid probe 10 μM
T9 sequence (Q8VD00 1-176): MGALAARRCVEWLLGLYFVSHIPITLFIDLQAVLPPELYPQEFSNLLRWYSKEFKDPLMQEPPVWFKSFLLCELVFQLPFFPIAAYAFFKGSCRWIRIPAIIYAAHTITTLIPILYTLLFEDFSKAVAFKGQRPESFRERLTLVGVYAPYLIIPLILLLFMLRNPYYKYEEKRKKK

mSGPL1 [3] = target: T1, mSGPL1; test: Gel-based blockade of AEA-DA labeling of recombinant mSGPL1 in HEK293T cells; format: binding; details: recombinant mSGPL1 expressed in HEK293T cells; AEA-DA 2 μM
mSGPL1 [4] = target: T1, mSGPL1; format: biochemical; details: tested at concentrations up to 200 μM
rSGPL1 = target: T10, rSGPL1 (Rattus norvegicus, UniProt Q8CHN6); format: biochemical; details: tested at concentrations up to 200 μM
T10 sequence (Q8CHN6 1-568): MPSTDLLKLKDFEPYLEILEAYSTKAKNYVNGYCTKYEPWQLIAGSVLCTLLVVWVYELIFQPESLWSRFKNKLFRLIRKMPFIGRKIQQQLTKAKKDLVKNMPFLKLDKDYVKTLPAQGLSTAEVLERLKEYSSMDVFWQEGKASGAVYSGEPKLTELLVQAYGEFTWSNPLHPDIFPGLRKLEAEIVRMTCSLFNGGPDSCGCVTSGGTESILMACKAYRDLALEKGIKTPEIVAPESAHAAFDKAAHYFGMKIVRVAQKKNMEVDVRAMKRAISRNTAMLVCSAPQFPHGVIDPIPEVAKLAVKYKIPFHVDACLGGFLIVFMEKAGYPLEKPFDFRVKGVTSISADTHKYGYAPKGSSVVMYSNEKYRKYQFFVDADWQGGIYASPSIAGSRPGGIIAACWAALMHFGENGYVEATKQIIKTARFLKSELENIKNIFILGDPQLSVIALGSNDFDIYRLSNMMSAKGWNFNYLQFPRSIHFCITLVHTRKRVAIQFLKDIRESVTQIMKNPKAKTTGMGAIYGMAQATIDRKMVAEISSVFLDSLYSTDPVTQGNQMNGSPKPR

## CCCCCCCCc1ccc(CC[C@](N)(CO)COP(=O)(O)O)cc1 [(S)-pFTY720]
Rat OPC
  effect on OPC differentiation (MBP+ cells): no impact on OPC differentiation

## CCCCCCCCCCCCC/C=C/[C@@H](O)[C@@H](N)COP(=O)(O)O [S1P, sphingosine 1-phosphate]
mSGPL1 [1]
  blockade of AEA-DA probe interactions with mSGPL1 in vitro: inhibited AEA-DA binding to SGPL1

## Cc1ccc2c(CC(=O)N3CCN(S(=O)(=O)c4ccc5c(c4)OCCO5)CC3)coc2c1 [SR-4559]
ABHD5
  blocking the A-DA or AEA-DA probe interaction with ABHD5: > 80%
ABHD10
  SILAC ratio (LiPIP probe displacement), ABHD10: ≥ 3.0
PNPLA2
  engagement of PNPLA2 (lipid probe enrichment ratio): not directly engaged

## CCCCNC(=O)Nc1ccc2c(c1)N(C)C(=O)c1ccccc1S2 [SR-4995]
ABHD5
  blocking the A-DA or AEA-DA probe interaction with ABHD5: > 80%
EPHX2
  SILAC ratio (LiPIP probe displacement), EPHX2: ≥ 3.0
PNPLA2
  engagement of PNPLA2 (lipid probe enrichment ratio): not directly engaged

## C[C@@H]1CN(c2nnc(Cc3ccccc3)c3ccc(C#N)cc23)CCN1c1ccc(C#N)cn1 [compound 11, (R)-1-benzyl-4-(4-(5-cyanopyridin-2-yl)-3-methylpiperazin-1-yl)phthalazine-6-carbonitrile]
Rat OPC
  effect on OPC differentiation (MBP+ cells): did not promote OPC differentiation

## Clc1ccc(COC(Cn2ccnc2)c2ccc(Cl)cc2Cl)c(Cl)c1 (stereo not drawn) [miconazole]
hSGPL1
  IC50: 6.5 µM
hSGPL1; fluorogenic S1P substrate analog
  maximal inhibition of hSGPL1 (plateau): 40%
Neuro2a cells
  effect on endogenous S1P content: increased the endogenous S1P content
[2]
  OPC differentiation by phenotypic screening: promote oligodendrocyte precursor cell (OPC) differentiation
Rat OPC
  effect on OPC differentiation (MBP+ cells): promotion of rat OPC differentiation

## C[C@@H](c1ncncc1F)[C@](O)(Cn1cncn1)c1ccc(F)cc1F [voriconazole]
CLPP
  SILAC ratio (light/heavy), CLPP: ~ 1.0
SGPL1
  SILAC ratio (light/heavy), SGPL1: ~ 1.0
EPHX1
  SILAC ratio (light/heavy), EPHX1: ~ 1.0
TMEM97
  SILAC ratio (light/heavy), TMEM97: ~ 1.0
mSGPL1 [3]
  blockade of AEA-DA probe binding to mSGPL1: but not voriconazole
mSGPL1 [1]
  blockade of AEA-DA probe interactions with mSGPL1 in vitro: but not voriconazole
mSGPL1 [4]
  inhibition of mSGPL1 activity: did not inhibit
rSGPL1
  inhibition of rSGPL1 activity: did not inhibit
hSGPL1; tested at concentrations up to 200 μM
  inhibition of hSGPL1 activity: did not inhibit
[2]
  OPC differentiation by phenotypic screening: inactive

— PMC5650530 (ACS chemical biology, 2017)
